Source: patent US20240360178A1, “MACROCYCLIC IMMUNOMODULATORS” (Bristol-Myers Squibb Company, priority 2021, published 2024)
Positions of bridges follow the written chain, without caps; N, C: chain ends. Non-standard residues stand in square brackets, D forms with d. Residues, ends and D or L forms follow the SMILES beside them. Tyr(3,5-Br2) = N[C@@H](Cc1cc(Br)c(O)c(Br)c1)C(=O)O; Phe(3-CF3) = N[C@@H](Cc1cccc(C(F)(F)F)c1)C(=O)O; Phe(4-COOH) = N[C@@H](Cc1ccc(C(=O)O)cc1)C(=O)O; Bip = N[C@@H](Cc1ccc(-c2ccccc2)cc1)C(=O)O; Phe(3-OMe) = COc1cccc(C[C@H](N)C(=O)O)c1; Val(3-OH) = CC(C)(O)[C@H](N)C(=O)O; NMeF = CN[C@@H](Cc1ccccc1)C(=O)O; 4Pal = N[C@@H](Cc1ccncc1)C(=O)O; Cha = N[C@@H](CC1CCCCC1)C(=O)O; dPip = O=C(O)[C@H]1CCCCN1; NMeA = CN[C@@H](C)C(=O)O; Orn = NCCC[C@H](N)C(=O)O; Dab = NCC[C@H](N)C(=O)O; Sar = CNCC(=O)O

Molecular target: T1, human PD-1 (Jurkat-PD-1 cells) / PE-labeled human PD-L1-Ig (Homo sapiens, UniProt Q15116)
T1 construct: expressed in transfected cells; host or cells: Jurkat cell line over-expressing human PD-1
Test: Jurkat-PD-1 Cell Binding High-Content Screening Assay (CBA); Jurkat hPD1-PDL1 assay
Settings: Jurkat cell line over-expressing human PD-1; PE-labeled PD-L1-Ig 20 nM final; compound incubated 2 hours at 37° C.; read-out: Jurkat HPD1-PDL1 IC50
In short: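 Jurkat cells over-expressing human PD-1, seeded in DMEM with 10% fetal calf serum, were preincubated with compound for 2 hours at 37° C. PE-labeled human PD-L1-Ig was then added at 20 nM final, and cell-bound fluorescence was read by high-content imaging.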

T1 sequence (Q15116 25-288): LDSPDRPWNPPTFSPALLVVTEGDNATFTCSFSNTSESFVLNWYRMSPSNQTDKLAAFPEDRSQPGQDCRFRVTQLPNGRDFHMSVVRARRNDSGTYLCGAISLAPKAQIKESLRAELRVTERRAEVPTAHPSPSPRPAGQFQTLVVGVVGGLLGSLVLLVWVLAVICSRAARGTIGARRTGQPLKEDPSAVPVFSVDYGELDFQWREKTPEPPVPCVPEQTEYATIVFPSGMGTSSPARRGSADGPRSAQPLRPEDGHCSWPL

SMILES	IC50 [nM]
CC(C)C[C@@H]1NC(=O)[C@H](CCCNC(=N)N)NC(=O)[C@H](Cc2ccccc2)N(C)C(=O)[C@H](C)N(C)C(=O)[C@H](CCCNC(=N)N)NC(=O)[C@H](Cc2ccc(-c3ccccc3)cc2)NC(=O)[C@H](C(C)C)NC(=O)[C@H](Cc2c[nH]c3ccccc23)NC(=O)[C@H](CC(=O)O)NC(=O)[C@H](Cc2ccc(O)cc2)NC(=O)[C@H](Cc2ccccc2)N(C)C(=O)CSC[C@@H](C(=O)NCC(N)=O)NC(=O)[C@H](CO)NC(=O)[C@H](C(C)C)NC1=O [Example 1250] ({CH2CO}-[NMeF]YDWV[Bip]R[NMeA][NMeF]RLVSCG-NH2; thioether N-14)	320
CC(C)C[C@@H]1NC(=O)[C@H](Cc2c[nH]c3ccccc23)NC(=O)[C@H](CC(=O)O)NC(=O)[C@H](Cc2cc(Br)c(O)c(Br)c2)NC(=O)[C@H](Cc2ccccc2)NC(=O)CSC[C@@H](C(=O)N[C@@H](C)C(N)=O)NC(=O)[C@H](CO)NC(=O)[C@H](C(C)C)NC(=O)[C@H](CC(C)C)NC(=O)[C@H](CC(N)=O)NC(=O)CN(C)C(=O)[C@H](C)N(C)C(=O)[C@H](C(C)C)NC(=O)[C@H](Cc2ccc(-c3ccccc3)cc2)NC1=O [Example 1113] ({CH2CO}-F[Tyr(3,5-Br2)]DWL[Bip]V[NMeA][Sar]NLVSCA-NH2; thioether N-14)	370
CC(C)C[C@@H]1NC(=O)[C@H](Cc2c[nH]c3ccccc23)NC(=O)[C@H](CC(=O)O)NC(=O)[C@H](Cc2ccc(O)cc2)NC(=O)[C@H](CC(N)=O)NC(=O)CSC[C@@H](C(=O)NCC(N)=O)NC(=O)[C@H]([C@@H](C)O)NC(=O)[C@H](C(C)C)NC(=O)[C@H](CC(C)C)NC(=O)[C@H](CC(N)=O)NC(=O)[C@H]2CCCN2C(=O)[C@H](CCCN)NC(=O)[C@H](C(C)C)NC(=O)[C@H](Cc2ccc(-c3ccccc3)cc2)NC1=O [Example 1424] ({CH2CO}-NYDWL[Bip]V[Orn][dP]NLVTCG-NH2; thioether N-14)	660
COc1ccc(C[C@@H]2NC(=O)[C@H](Cc3ccccc3)NC(=O)CSC[C@@H](C(=O)N[C@@H](C)C(N)=O)NC(=O)[C@H](CO)NC(=O)[C@H](C(C)C)NC(=O)[C@H](CC(C)C)NC(=O)[C@H](CC(N)=O)NC(=O)CN(C)C(=O)[C@H](C)N(C)C(=O)[C@H](C(C)C)NC(=O)[C@H](Cc3ccc(-c4ccccc4)cc3)NC(=O)[C@H](CC(C)C)NC(=O)[C@H](Cc3c[nH]c4ccccc34)NC(=O)[C@H](CC(=O)O)NC2=O)cc1 [Example 1139] ({CH2CO}-FY(Me)DWL[Bip]V[NMeA][Sar]NLVSCA-NH2; thioether N-14)	590
CC(C)C[C@@H]1NC(=O)[C@H](CCCCN)NC(=O)[C@H](Cc2ccccc2)N(C)C(=O)[C@H](C)N(C)C(=O)[C@H](CCCNC(=N)N)NC(=O)[C@H](Cc2ccc(-c3ccccc3)cc2)NC(=O)[C@H](C(C)C)NC(=O)[C@H](Cc2c[nH]c3ccccc23)NC(=O)[C@H](CC(=O)O)NC(=O)[C@H](Cc2ccc(O)cc2)NC(=O)[C@H](CCC(N)=O)NC(=O)CSC[C@@H](C(=O)NCC(N)=O)NC(=O)[C@H](CO)NC(=O)[C@H](C(C)C)NC1=O [Example 1313] ({CH2CO}-QYDWV[Bip]R[NMeA][NMeF]KLVSCG-NH2; thioether N-14)	240
CC(C)C[C@@H]1NC(=O)[C@H](Cc2c[nH]c3ccccc23)NC(=O)[C@H](CC(=O)O)NC(=O)[C@H](Cc2ccc(O)cc2)NC(=O)[C@H](Cc2ccccc2)NC(=O)CSC[C@@H](C(=O)NCC(N)=O)NC(=O)[C@H](CC(N)=O)NC(=O)[C@H](C(C)C)NC(=O)[C@H](CC(C)C)NC(=O)[C@H](CC(N)=O)NC(=O)CN(C)C(=O)[C@H](C)N(C)C(=O)[C@H](C(C)C)NC(=O)[C@H](Cc2ccc(-c3ccccc3)cc2)NC1=O [Example 1228] ({CH2CO}-FYDWL[Bip]V[NMeA][Sar]NLVNCG-NH2; thioether N-14)	720

The next molecules have a lower IC50 than those just listed; values first:

IC50 [nM]	SMILES
230	CC(C)C[C@@H]1NC(=O)[C@H](Cc2cccc(C(F)(F)F)c2)NC(=O)[C@H](CC(=O)O)NC(=O)[C@H](Cc2ccc(O)cc2)NC(=O)[C@H](Cc2ccccc2)NC(=O)CSC[C@@H](C(=O)N[C@@H](C)C(N)=O)NC(=O)[C@H](CO)NC(=O)[C@H](C(C)C)NC(=O)[C@H](CC(C)C)NC(=O)[C@H](CC(N)=O)NC(=O)CN(C)C(=O)[C@H](C)N(C)C(=O)[C@H](C(C)C)NC(=O)[C@H](Cc2ccc(-c3ccccc3)cc2)NC1=O [Example 1081] ({CH2CO}-FYD[Phe(3-CF3)]L[Bip]V[NMeA][Sar]NLVSCA-NH2; thioether N-14)
120	CC(C)C[C@@H]1NC(=O)[C@H](Cc2c[nH]c3ccccc23)NC(=O)[C@H](CC(=O)O)NC(=O)[C@H](Cc2ccc(O)cc2)NC(=O)[C@H](Cc2ccccc2)NC(=O)CSC[C@@H](C(=O)NCC(N)=O)NC(=O)[C@H](CO)NC(=O)[C@H](C(C)C)NC(=O)[C@H](CC(C)C)NC(=O)[C@H](CCCNC(=N)N)NC(=O)[C@H](Cc2ccccc2)N(C)C(=O)[C@H](C)N(C)C(=O)[C@H](CCCNC(=N)N)NC(=O)[C@H](Cc2ccc(-c3ccccc3)cc2)NC1=O [Example 1327] ({CH2CO}-FYDWL[Bip]R[NMeA][NMeF]RLVSCG-NH2; thioether N-14)
70	CC(C)C[C@@H]1NC(=O)[C@H](Cc2c[nH]c3ccccc23)NC(=O)[C@H](CC(=O)O)NC(=O)[C@H](Cc2ccc(C(=O)O)cc2)NC(=O)[C@H](Cc2ccncc2)NC(=O)CSC[C@@H](C(=O)N[C@@H](CCN)C(N)=O)NC(=O)[C@H](CO)NC(=O)[C@H](C(C)(C)O)NC(=O)[C@H](CC2CCCCC2)NC(=O)[C@H](CCN)NC(=O)[C@H]2CCCCN2C(=O)[C@H]2CCCN2C(=O)[C@H](C(C)C)NC(=O)[C@H](Cc2ccc(-c3ccccc3)cc2)NC1=O [Example 1189] ({CH2CO}-[4Pal][Phe(4-COOH)]DWL[Bip]V[dP][dPip][Dab][Cha][Val(3-OH)]SC[Dab]-NH2; thioether N-14)
40	CC(C)C[C@@H]1NC(=O)[C@H](CCCNC(=N)N)NC(=O)[C@H](Cc2ccccc2)N(C)C(=O)[C@H](C)N(C)C(=O)[C@H](CCC(=O)O)NC(=O)[C@H](Cc2ccc(-c3ccccc3)cc2)NC(=O)[C@H](C(C)C)NC(=O)[C@H](Cc2c[nH]c3ccccc23)NC(=O)[C@H](CC(=O)O)NC(=O)[C@H](Cc2ccc(O)cc2)NC(=O)[C@H](CC(N)=O)NC(=O)CSC[C@@H](C(=O)N[C@@H](C)C(N)=O)NC(=O)[C@H]([C@@H](C)O)NC(=O)[C@H](C(C)C)NC1=O [Example 1379] ({CH2CO}-NYDWV[Bip]E[NMeA][NMeF]RLVTCA-NH2; thioether N-14)
10	COc1cccc(C[C@@H]2NC(=O)[C@H](CC(=O)O)NC(=O)[C@H](Cc3ccc(O)cc3)NC(=O)[C@H](Cc3ccccc3)NC(=O)CSC[C@@H](C(=O)N[C@@H](C)C(N)=O)NC(=O)[C@H](CO)NC(=O)[C@H](C(C)C)NC(=O)[C@H](CC(C)C)NC(=O)[C@H](CC(N)=O)NC(=O)[C@H]3CCCN3C(=O)[C@H](C)N(C)C(=O)[C@H](C(C)C)NC(=O)[C@H](Cc3ccc(-c4ccccc4)cc3)NC(=O)[C@H](CC(C)C)NC2=O)c1 [Example 1022] ({CH2CO}-FYD[Phe(3-OMe)]L[Bip]V[NMeA][dP]NLVSCA-NH2; thioether N-14)
